US20240252674A1, “AGENTS FOR DIRECTED CONJUGATION TECHNIQUES AND CONJUGATED PRODUCTS” (Biohaven Therapeutics Ltd., priority 2021, published 2024)
Where two headings read alike, the source gives them in different places. Where no end group is shown, it is not given here.

Experiments:
IgG = assay: Binding of peptide IgG binder (directing group) to IgG; conditions: Kd of the directing group included in the peptide IgG binder
Immunoglobulin G [1] = target: Immunoglobulin G
Immunoglobulin G [2] = target: Immunoglobulin G; remark: listed apart in the source

DCAWXLGELVWCT peptide [cyclic peptide IgG binder]
Kd (IgG): 15 nM

GSYWYDVWF peptide [linear peptide IgG binder]
Kd (IgG): 600 nM

cyclic peptide IgG binder (DCAWXLGELVWCT peptide)
Kd (Immunoglobulin G [1]): 15 nM

B1: linear peptide IgG binder (… peptide) (peptide)
peptide: GSYWYDVWF
modifications: not fully specified
Kd (Immunoglobulin G [2]): 600 nM
